Read-outs that look alike come from different tables or passages of the source. Non-standard residues stand in square brackets, D forms with d. Residues, ends and D or L forms follow the SMILES beside them. Aoe = N[C@@H](CCCCCC(=O)[C@@H]1CO1)C(=O)O
Tests used:
[1] = target: T1, recombinant FLAG epitope tagged HD1 (HD1-F) (Homo sapiens, UniProt Q13547); assay: Histone deacetylase activity of anti-FLAG immunoprecipitates of recombinant HD1-F; format: biochemical; settings: Jurkat cells transfected with pBJ5/HD1-F
T1 construct: expressed in transfected cells; host or cells: Tag Jurkat cells, electroporated with pBJ5/HD1-F
Method: Anti-FLAG antibodies conjugated to agarose beads (IBI) were used to immunoprecipitate recombinant HD1 in the presence or absence of FLAG peptide competitor, and histone deacetylase activity was measured as described above.

mammalian cells = settings: cited from earlier work; for gene expression and differentiation: certain mammalian cell lines; for cell cycle arrest: mammalian cells
bovine p46-p50 = assay: Binding of bovine thymus nuclear proteins to K-trap affinity matrix in presence of inhibitors, silver stained gel; settings: incubation in presence of inhibitor
Method: Nuclear proteins from human Jurkat T cells were prepared identically to those from bovine thymus (FIG. 1B). Molecular size standards (in kilodaltons) are indicated to the right.
K-trap was deprotected with Pd(Ph3P)4 and coupled to an activated agarose matrix (FIG. 2A). […] Bound polypeptides were eluted by boiling the matrix in 1% SDS buffer and separated b polyacrylamide gel electrophoresis.

HD1 = target: T2, HD1 (Homo sapiens, UniProt Q13547); assay: Histone deacetylase activity of anti-HD1(467-482) immunoprecipitates from Jurkat nuclear extract; format: biochemical; settings: endogenous HD1 from Jurkat crude nuclear extracts
T2 construct: endogenous in cells; host or cells: Jurkat T cells (nuclear extract)
Method: After resuspending the immunoprecipitates in HDx buffer [20 mM tris (pH 8), 150 mM NaCl, 10% glycerol], inhibitors were added as indicated, and histone deacetylase activity was measured as described in FIG. 1A.
We used affinity purified antibodies directed against a COOH-terminal peptide (amino acids 467 to 482) to immunoprecipitate HD1 from crude nuclear extracts.

trapoxin binding protein = assay: Trapoxin binding, charcoal precipitation assay with [3H]trapoxin; settings: simultaneous addition, bovine thymus extracts
histone deacetylase [2] = settings: cited from earlier work; for histone deacetylation: cultured mammalian cells, fractioned cell extracts
recombinant HD1-F = target: T3, recombinant HD1-F (Homo sapiens, UniProt Q13547); assay: Interaction between recombinant HD1-F and K-trap affinity matrix, immunoblot; format: binding; settings: lysates of transfected Jurkat cells
T3 construct: expressed in transfected cells; host or cells: Tag Jurkat cells, electroporated with pBJ5/HD1-F
Method: Lysates from Jurkat cells transfected with pBJ5/HD1-F were incubated with the K-trap affinity matrix in the presence or absence of inhibitors. Immunoblots of the eluted proteins were probed with the anti-FLAG M2 monoclonal antibody (IBI).

HD1 and RbAp48 = target: T4, HD1 and RbAp48 (Homo sapiens, UniProt Q13547); assay: Immunoblot of proteins eluted from K-trap affinity matrix; format: binding, bovine and human; settings: affinity purification in presence of inhibitor
T4 construct: endogenous in cells; host or cells: Jurkat nuclear extract (the same blot also carries bovine thymus nuclear proteins)
Excerpt: Proteins eluted from the K-trap affinity matrix (FIG. 2) were separated by SDS-PAGE and transferred to Immobilon-P (Millipore). Blots were probed with polyclonal anti-HD1 (319-336) or monoclonal anti-RbAp48 and bound antibodies were detected with enhanced chemiluminescence (Amersham).
To determine the relationship between the proteins from bovine thymus (p46-p50) and the proteins isolated from human Jurkat T cells (p50 and p55), an antiserum was generated against a peptide specified by the HD1 open reading frame (FIG. 3A, amino acids […]).

histone deacetylase [3] = assay: Histone deacetylase assay, release of [3H]acetic acid from [3H]acetylated histone H4 (1-24) peptide; format: biochemical; settings: 20 nM; crude or partially purified (Mono Q) bovine thymus nuclear enzyme; pretreatment 30 min at 4° C.
Method: Nuclear proteins from bovine thymus were precipitated with ammonium sulfate and fractionated on a Mono Q column. […] For the histone deacetylase assay, a peptide corresponding to bovine histone H4 (1-24) was synthesized. The peptide was chemically acetylated with sodium [^3H]acetate (5.3 Ci/mmol, New England Nuclear)/BOP reagent (Aldrich) and purified by reverse phase HPLC. Two microliters of [^3H]peptide (˜40,000 dpm) were used per […] assay. After incubation at 37° C. for one hour, the reaction was quenched with 1 M HCl/0.16 M acetic acid (50 μl). Released [^3H]acetic acid was extracted with 600 μl of ethyl acetate and quantified by scintillation counting. […] A280=absorbance at 280 n.
Briefly, thymocytes (˜12 g) prepared from fresh bovine thymus were homgenized in hypotonic lysis buffer [20 mM tris (pH 7.8), 20 mM NaCl, 1 mM EDTA, 10% glycerol, 1 mM PMSF, 1 mM benzamidine, 10 μg/ml each of pepstatin, aprotinin, and leupeptin] by mechanical disruption and the nuclei were isolated by centrifugation at 3000 g. Nuclei were resuspended in lysis buffer and the proteins were extracted with 0.4 M ammonium sulfate. The viscous lysate was sonicated and clarified by centrifugation at 100,000 g for one hour. Proteins were then precipitated with 90% saturated ammonium sulfate and recovered by centrifugation (100,000 g, one hour). […]

T3 sequence (Q13547 whole entry): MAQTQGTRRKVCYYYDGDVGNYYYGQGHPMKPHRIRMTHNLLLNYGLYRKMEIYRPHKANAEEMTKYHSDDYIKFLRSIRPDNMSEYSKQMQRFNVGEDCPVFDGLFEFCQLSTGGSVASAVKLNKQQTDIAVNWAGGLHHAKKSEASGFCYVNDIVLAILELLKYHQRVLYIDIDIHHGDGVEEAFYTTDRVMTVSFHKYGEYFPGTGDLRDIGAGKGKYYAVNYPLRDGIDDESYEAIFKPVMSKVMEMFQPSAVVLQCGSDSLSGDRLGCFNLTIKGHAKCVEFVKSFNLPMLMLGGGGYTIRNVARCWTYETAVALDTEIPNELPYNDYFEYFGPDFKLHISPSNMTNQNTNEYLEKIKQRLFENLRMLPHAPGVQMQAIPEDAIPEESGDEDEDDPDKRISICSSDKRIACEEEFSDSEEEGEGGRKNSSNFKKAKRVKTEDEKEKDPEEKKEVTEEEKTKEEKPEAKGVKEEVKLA
T1 sequence (Q13547 whole entry): as above
T2 sequence (Q13547 whole entry): as above
T2 sequence (Q09028 2-425 partner limits assumed): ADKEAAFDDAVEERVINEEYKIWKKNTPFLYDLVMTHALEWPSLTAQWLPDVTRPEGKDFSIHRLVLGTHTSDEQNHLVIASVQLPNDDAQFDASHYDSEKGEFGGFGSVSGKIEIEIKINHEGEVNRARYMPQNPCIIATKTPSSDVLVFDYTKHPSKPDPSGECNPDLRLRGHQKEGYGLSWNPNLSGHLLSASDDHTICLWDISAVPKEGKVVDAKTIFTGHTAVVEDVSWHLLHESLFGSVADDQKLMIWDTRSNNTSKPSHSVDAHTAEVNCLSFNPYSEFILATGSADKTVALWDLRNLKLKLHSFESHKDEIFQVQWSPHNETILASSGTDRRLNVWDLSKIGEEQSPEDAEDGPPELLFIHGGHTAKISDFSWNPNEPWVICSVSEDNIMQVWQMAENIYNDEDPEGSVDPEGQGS
T4 sequence (Q13547 whole entry): as the sequence (Q13547 whole entry) above
T4 sequence (Q09028 2-425 partner): as the sequence (Q09028 2-425 partner limits assumed) above

## CC(/C=C/C(=O)NO)=C\[C@@H](C)C(=O)c1ccc(N(C)C)cc1 [trichostatin]
[1]
  histone deacetylase activity of HD1-F immunoprecipitates: sensitive
Mammalian cells
  gene expression and differentiation: alter gene expression and induce certain mammalian cell lines to differentiate
  potency relative to sodium butyrate: five orders of magnitude more potent
  cell cycle arrest: G1 and G2 phase cell cycle arrest
Bovine p46-p50
  retention of bovine p46-p50 on K-trap matrix in the presence of inhibitor: not retained
HD1
  histone deacetylase activity of HD1 immunoprecipitates: inhibited
Trapoxin binding protein
  competition with [3H]trapoxin binding: competed
Histone deacetylase [2]
  histone deacetylation: inhibit histone deacetylation
Recombinant HD1-F
  competition of HD1-F interaction with K-trap affinity matrix: fully competed by nanomolar concentrations
HD1 and RbAp48
  detection of HD1 and RbAp48 in K-trap matrix eluates: neither HD1 nor RbAp48 was detected
Histone deacetylase [3]
  histone deacetylase activity after treatment: abolished deacetylase activity

## O=C1N[C@@H](Cc2ccccc2)C(=O)N2CCC[C@@H]2C(=O)N[C@@H](CCCCCC(=O)[C@@H]2CO2)C(=O)N[C@H]1Cc1ccccc1 [trapoxin] (cyclo(FF[dP][Aoe]))
Mammalian cells
  gene expression and differentiation: alter gene expression and induce certain mammalian cell lines to differentiate
  cell cycle arrest: G1 and G2 phase cell cycle arrest
Mammalian cells; listed as Trapoxin
  cell cycle arrest: causes mammalian cells to arrest in the cell cycle
Bovine p46-p50
  retention of bovine p46-p50 on K-trap matrix in the presence of inhibitor: not retained
Trapoxin binding protein
  competition with [3H]trapoxin binding: completed
Histone deacetylase [2]
  mode of inhibition of histone deacetylase activity: “irreversible” inhibitor
  histone deacetylation: inhibit histone deacetylation
Histone deacetylase [2]; listed as Trapoxin
  histone deacetylation: inhibits histone deacetylation in vivo
Histone deacetylase [3]
  histone deacetylase activity after treatment: abolished deacetylase activity

Reference: US8426592B2, “Histone deacetylases, and uses related thereto” (President and Fellows of Harvard College, priority 1996, dated 2013)
